{
  "source": "patent US11602546B2",
  "about": "“Combination inhibiting MEIS proteins” (YEDÍTEPE ÜNÍVERSÍTESÍ, priority 2016, dated 2023)",
  "key": {"[1]": {"test_system": "p21-Luc MEIS reporter (Meis1)", "experiment": "in vitro p21 luciferase reporter assay in COS cells", "assay_type": "cell-based", "conditions": "COS cells, 0.1, 1 and 10 μM, 48 hours", "description": "2—Determining Meis1 Inhibitors by In Vitro Luciferase Reporter Assay\nMEIS inhibitors were tested by conducting the luciferase reporter assay. It was observed that MEIS protein activated the luciferase reporters containing increasing doses of p21 promoters. pGL2 vectors comprising p21 gene promoter, which is activated by Meis1, were used in the luciferase assays. Therefore, 0.8 μg p21-pGL2, 400 ng Meis1 expression vector pCMVSPORT6-Meis1 (Open BioSystems) and 0.2 μg p CMV-LacZ (internal control) vector were transfected together to the COS cells. 4 hours later, the cells were treated with prototype MEIS inhibitors (at 0.1, 1 and 10 μM concentrations). 6-well plates and lipofectamine were used for transfection. 48 hours later, the cells were lysed, samples were collected and luciferase activity was determined. Reporter system of Promega (Promega Dual-Glo® Luciferase Assay System) was used for this. Luciferase measurements were normalized according to β-gal measurements (measurements were made at 420 nm). Thermo Lab system Lumino scan Ascent device was used for the luciferase measurements. As a result of these experimental studies, the in silico study, which targeted MEIS homeodomain and was conducted in comparison to the other TALE homeodomain, enabled to determine MEIS-specific hits (Experimental Results (ER): ER-A)."}, "[2]": {"test_system": "p21, Hif-1alpha (Hif-1α), Hif-2alpha (Hif-2α) genes in the Meis1 pathway", "experiment": "real-time RT-PCR of Meis1 pathway genes in HSCs", "assay_type": "cell-based", "conditions": "HSCs, 0.1, 1 and 10 μM, 3 days, vs DMSO", "description": "3—Testing MEIS Inhibitors by Real-Time RT-PCR\nHSCs were prepared for each inhibitor (3 replicates in 6 wells) and cell series containing DMSO were used as control group. For each potential small molecule, assays were conducted at concentrations of 0.1, 1 and 10 μM; and the cells were trypsinized and collected after 3 days and were stored in trizol until RNA isolation was carried out. RNA isolation was performed by using Qiagen in RNeasy mini kit and protocol. cDNA was synthesized from 2 μg RNA by using Invitrogen in Superscript II RT system. Assays were conducted in BioRad CFX 96 Real Time PCR device by using SyberGreen (AppliedBiosystems). GAPDH was used as the control gene and was used for normalizing gene expression by ddCT method. Levels of the p21, Hif-1alpha (Hif-1α), Hif-2alpha (Hif-2α) gene expressions, which are known to be activated by Meis1, were determined and were controlled by DMSO control group (FIG. 3) (ER: B)."}, "[3]": {"test_system": "Lin− cells obtained from the bone marrow / HSCs", "experiment": "ex vivo mouse HSC proliferation (Lin− bone marrow cells, flow cytometry)", "assay_type": "cell-based", "conditions": "dose dependent", "description": "4—Determining the effect of MEIS inhibitor on ex vivo HSC proliferation\nBone marrow isolation from mouse and HSC purification were performed. For this, following euthanasia of 8-12 week old mice with isoflurane, bone marrow cells were obtained from femur and tibia bones. Briefly, Lin−, Sca1+, c-Kit+, CD34low cells (long term HSCs) were obtained by being stained with cell line cocktail with biotin (anti-CD3, anti-CDS, anti-B220, anti-Mac-1, anti-Gr1, anti-Ter119; Stem Cell Technologies), and that was followed by streptavidin-PE/Cy5.5, anti-Sca-1-FITC, anti-KIT-APC, and anti-CD34-PE staining. HSC medium known as SCF medium was used in the culture of the isolated bone marrow cells. […]\nHSC frequency and number: The Lin− cells obtained from the bone marrow were treated in the cell culture with MEIS inhibitors or DMSO for 10 days, and subsequently the number of hematopoietic cells (FIG. 4) and the percentage of HSCs (FIGS. 5 and 6) were determined. In order to determine the number of HSCs, the concerned surface antigens (Lin−, Sca1+, c-Kit+, CD34−) were stained with fluorochrome conjugated antibody as in the previous studies and then analyzed with flow cytometry (ER: C)."}, "[4]": {"test_system": "human HSCs from bone marrow or umbilical cord blood", "experiment": "human HSC expansion ex vivo", "assay_type": "cell-based", "conditions": "human hematopoietic cell culture, in comparison to DMSO control group", "description": "Human HSC Expansion: The cells obtained from bone marrow or umbilical cord blood were separated by Percoll and mononuclear cells were obtained. They were transferred to the tubes containing HSC medium. HSC medium known as SCF medium was used in the culture of the isolated bone marrow and umbilical cord blood HSCs. […] Following HSC purification, HSCs were seeded into a 96-well plate (Corning, 3799) at 200-300 HSCs per well; and upon adding maximum 200 μl of MEIS inhibitors mixed in SCF medium into each cell, they were incubated in 5% CO2 and normal O2 level at 37° C. for 7-10 days. Then, the number and percentage (frequency) of the HSCs and of the other hematopoietic progenitor cells were determined. The results were compared with the control group treated with DMSO (ER: E)."}, "[5]": {"test_system": "HSCs in mouse bone marrow and blood", "experiment": "in vivo proliferation of HSCs with MEIS inhibitors", "conditions": "0.5 mg/kg to 10 mg/kg, 10 days after administration", "description": "5—In Vivo Proliferation of HSCs with MEIS Inhibitors\nAs an alternative to ex vivo proliferation of HSCs by using small molecules, it was shown that application of MEIS inhibitors directly for in vivo HSC proliferation is also possible. The injected MEIS inhibitors were administered intraperitoneally in the range of 0.5 mg/kg to 10 mg/kg. In order to ensure effective incubation, the inhibitors were administered to the mice in 3 different doses; and 10 days after administration, the amount of the HSCs obtained from the bone marrow of the mice was determined (FIG. 9) (ER: F)."}, "[6]": {"test_system": "L929 murine fibroblastic cell line", "experiment": "cytotoxic analyses, WST1, L929 cell line", "assay_type": "cell-based", "conditions": "L929 cells, 0, 1, 1 and 10 μM doses, 4 days", "description": "6—Cytotoxic Analyses of MEIS Inhibitors\nL929 murine fibroblastic cell line was used for cytotoxic analyses of the MEIS inhibitors. The cells were seeded into a 96-well plate (Corning, 3799) at 2000 cells per well. The next day after seeding, the cells were treated by different doses by means of gradient concentration method using final concentrations of 0.1 μM, 1 μM, 10 μM with Meis1 inhibitor 1 (MEISi-1) and Meis1 inhibitor 2 (MEISi-2) mixed into each well in maximum 200 μl DMEM medium, and they were incubated in 5% CO2 and normal O2 level at 37° C. 4 days after the incubation, 10 μl WST1 cell proliferation solution (Boster, AR1159) was added, and after incubation of 4 hours, absorbance measurement was carried out at 450 nm by Thermo Lab system Multiskan Spektrum (ER-G)."}, "[7]": {"experiment": "dose-dependent in vitro experiments (effective dose)", "assay_type": "cell-based", "description": "The effective dose was determined to be 1 μM by means of the dose-dependent in vitro experiments."}},
  "data": [
    {"smiles": "Cc1cccc(NC(=O)c2ccc(OCC(=O)NCc3ccccc3)cc2)c1C", "note": "[MEISi-1, 4-[2-(benzylamino)-2-oxoethoxy]-N-(2,3-dimethylphenyl) benzamide]", "values": [
      {"measurement": "inhibition of p21-Luc MEIS reporter (luciferase activity)", "setting": "[1]", "result": "inhibit p21-Luc MEIS reporter in a dose-dependent manner"},
      {"measurement": "expression of Hif-1alpha (Hif-1α) gene", "setting": "[2]", "result": "reduce expression"},
      {"measurement": "expression of Hif-2alpha (Hif-2α) gene", "setting": "[2]", "result": "reduce expression"},
      {"measurement": "expression of p21 gene", "setting": "[2]", "result": "reduce expression"},
      {"measurement": "increase in the number of HSCs", "setting": "[3]", "result": "up to 10 times"},
      {"measurement": "ALDHBr HSC number increase", "setting": "[4]", "result": 2, "unit": "times"},
      {"measurement": "CD34+ HSC number increase", "setting": "[4]", "result": 2, "unit": "times"},
      {"measurement": "CD34+CD133 HSC number increase", "setting": "[4]", "result": 2, "unit": "times"},
      {"measurement": "CD133+ HSC number increase", "setting": "[4]", "result": 2, "unit": "times"},
      {"measurement": "HSC number in mouse bone marrow (LSKCD34low cells)", "setting": "[5]", "result": "successfully increased HSC number"},
      {"measurement": "HSC number in the blood (LSKCD150+CD48− cells)", "setting": "[5]", "result": "successfully increased HSC number"},
      {"measurement": "cytotoxicity", "setting": "[6]", "result": "not cytotoxic"},
      {"measurement": "effective dose", "setting": "[7]", "result": 1, "unit": "µM"}
    ]},
    {"smiles": "O=C1C=Cc2ccccc2/C1=C/NNC(=O)c1ccc(O)cc1", "note": "[MEISi-2, 4-hydroxy-N′-[(Z)-(2-oxonaphthalen-1-ylidene)methyl] benzohydrazide]", "values": [
      {"measurement": "inhibition of p21-Luc MEIS reporter (luciferase activity)", "setting": "[1]", "result": "inhibit p21-Luc MEIS reporter in a dose-dependent manner"},
      {"measurement": "expression of Hif-1alpha (Hif-1α) gene", "setting": "[2]", "result": "reduce expression"},
      {"measurement": "expression of Hif-2alpha (Hif-2α) gene", "setting": "[2]", "result": "reduce expression"},
      {"measurement": "expression of p21 gene", "setting": "[2]", "result": "reduce expression"},
      {"measurement": "increase in the number of HSCs", "setting": "[3]", "result": "up to 3 times"},
      {"measurement": "ALDHBr HSC number increase", "setting": "[4]", "result": 2, "unit": "times"},
      {"measurement": "CD34+ HSC number increase", "setting": "[4]", "result": 2, "unit": "times"},
      {"measurement": "CD34+CD133 HSC number increase", "setting": "[4]", "result": 2, "unit": "times"},
      {"measurement": "CD133+ HSC number increase", "setting": "[4]", "result": 2, "unit": "times"},
      {"measurement": "HSC number in mouse bone marrow (LSKCD34low cells)", "setting": "[5]", "result": "successfully increased HSC number"},
      {"measurement": "HSC number in the blood (LSKCD150+CD48− cells)", "setting": "[5]", "result": "successfully increased HSC number"},
      {"measurement": "cytotoxicity", "setting": "[6]", "result": "not cytotoxic"},
      {"measurement": "effective dose", "setting": "[7]", "result": 1, "unit": "µM"}
    ]}
  ]
}
